Data as given in patent US20240059747A1, “UBIQUITIN VARIANT WITH HIGH AFFINITY FOR BINDING 53BP1 REDUCES THE AMOUNT OF AAV NEEDED TO ACHIEVE HIGH RATES OF HDR” (Integrated DNA Technologies, Inc., priority 2022, published 2024).

What was measured:
[1] = test system: K562 cells; assay: percent HDR by EcoR1 cleavage assay, Cas9 RNP nucleofection with AAV donor, K562 cells; assay type: cell-based; details: 50 μM CM1tf, SERPINC1, AAV donor MOI range, FIG. 1C
Experimental: FIG. 1C depicts an exemplary heatmap showing the percent HDR at SERPINC1 in K562 cells with and without 50 uM CM1tf. In FIG. 1A-C, the ubiquitin variant CM1tf boosts HDR when delivered with Cas9 RNP when an AAV vector is used to deliver the donor template. The heatmaps show the percent HDR measured by EcoR1 cleavage assay with and without the use of CM1tf. Cas9 RNP (2 μM) was delivered with and without CM1tf into cells by Lonza nucleofection using 4 μM Alt-R Cas9 Electroporation Enhancer. AAV donor containing an EcoR1 cut site insert with 500 bp homology arms was added at a range of multiplicity of infection (MOIs) to cells for 24 hours following RNP delivery.
We developed at tag-free version of CM1 (CM1tf) and tested its ability to enhance HDR in cell lines using AAV donor (see Table 1). AAV-DJ, a synthetic AAV serotype most closely related to AAV-2 that is a chimera of type 2/type 8/ and type 9, was chosen for testing due to its high transduction efficiency in vitro for a broad range of cell types. The dose of CM1tf was held constant while a range of MOIs was used for the AAV donor. […] Cells were then plated in 96 well plates at 20,000 cells/well and AAV was added to the wells at a range of MOI from 0 (no virus) to 160,000, with MOI being calculated as viral genomes (vg) per cell with vg calculated using qPCR. […]

[2] = test system: HEK293 cells; assay: percent HDR by EcoR1 cleavage assay, Cas9 RNP nucleofection with AAV donor, HEK293 cells; assay type: cell-based; details: for dose dependence of HDR benefit: AAV donor at MOI 20,000, doses up to 200 μM
Experimental: FIG. 1C depicts an exemplary heatmap showing the percent HDR at SERPINC1 in K562 cells with and without 50 uM CM1tf. […] The heatmaps show the percent HDR measured by EcoR1 cleavage assay with and without the use of CM1tf. Cas9 RNP (2 μM) was delivered with and without CM1tf into cells by Lonza nucleofection using 4 μM Alt-R Cas9 Electroporation Enhancer. AAV donor containing an EcoR1 cut site insert with 500 bp homology arms was added at a range of multiplicity of infection (MOIs) to cells for 24 hours following RNP delivery.
FIG. 2B depicts an exemplary heatmap showing the percent HDR at SERPINC1 in HEK293 cells with no enhancer, CM1tf, V2, or CM1tf+V2. […] Cas9 RNP was co-delivered with and without CM1tf into cells by Lonza nucleofection with 2 μM Cas9 RNP, 4 μM Alt-R Cas9 Electroporation Enhancer, and 0 or 25 uM CM1tf. AAV donor containing an EcoR1 cut site insert with 500 bp homology arms was added at a range of MOIs to cells for 24 hours following RNP delivery. V2 enhancer was added to media at a 1 uM final concentration for 24 hours following nucleofection.
The heatmaps show the percent HDR at STAT3 measured by EcoR1 cleavage assay with or without CM1tf. Cas9 RNP was co-delivered with and without CM1tf into cells by Lonza nucleofection with 2 μM Cas9 RNP, 4 μM Alt-R Cas9 Electroporation Enhancer, and 0 or 25 uM CM1tf. AAV donor containing 500 base pair (bp), 300 bp, or 100 bp homology arms was added at a range of MOIs to cells for 24 hours following RNP delivery.
Cas9 RNP was co-delivered with and without CM1tf into cells by Lonza nucleofection with 2 μM Cas9 RNP, 4 μM Alt-R Cas9 Electroporation Enhancer, and range of CM1tf concentrations from 200 μM to 6.25 μM. AAV donor containing an EcoR1 cut site insert with 500 bp homology arms was added at an MOI of 20,000 to cells for 24 hours following RNP delivery.
We developed at tag-free version of CM1 (CM1tf) and tested its ability to enhance HDR in cell lines using AAV donor (see Table 1). AAV-DJ, a synthetic AAV serotype most closely related to AAV-2 that is a chimera of type 2/type 8/ and type 9, was chosen for testing due to its high transduction efficiency in vitro for a broad range of cell types. The dose of CM1tf was held constant while a range of MOIs was used for the AAV donor. The AAV donor was constructed such that a 6 base pair insert consisting of an EcoR1 cut site (GAATTC) was flanked by 500 base pairs of homology arm matching the genomic sequence on either side of the target cut site. Briefly, Cas9 V3 protein (IDT) and Alt-R sgRNA (IDT) were mixed at a 1:1.2 ratio, incubated for 10 min, then Alt-R Cas9 electroporation enhancer (EE) (IDT), 1× PBS (Gibco), and CM1tf, diluted in 1× PBS, were added. HEK293 or K562 cells were washed and resuspended in SF buffer for Lonza Nucleofection and added to the RNP+DNA mix such that the final concentration of Cas9 RNP was 2 μM, EE was 4 μM, and CM1tf was 25 μM (HEK293 cells) or 50 μM (K562 cells). Cells plus RNP+DNA were electroporated using program DS-150 (HEK293 cells) or FF-120 (K562 cells) using the Lonza nucleofector system. Cells were then plated in 96 well plates at 20,000 cells/well and AAV was added to the wells at a range of MOI from 0 (no virus) to 160,000, with MOI being calculated as viral genomes (vg) per cell with vg calculated using qPCR. Cells were recovered and plated with serum free media, AAV was added, then serum containing media was added after four hours. Genomic DNA was isolated 48 hours after RNP delivery using QuickExtract (Lucigen).
In order to optimize HDR, it is often desirable to use a combination of HDR enhancers that work by different mechanisms to further boost HDR rates beyond what can be achieved by any single enhancer alone.

[3] = test system: 53BP1 foci; details: introduced into cells; cited from earlier work
[4] = test system: HDR; details: ssDNA donor; previous testing; cited from earlier work
[5] = test system: HDR; details: plasmid, AAV mediated gene delivery or mRNA delivery; double-stranded and single-stranded DNA donors; cited from earlier work

Substance	boost of HDR [1]	improvement in HDR rates, single enhancers and combination ([2]; 25 uM CM1tf, 1 μM V2 enhancer in media for 24 hours, AAV donor MOI range, HPRT1 and SERPINC1, FIG. 2)	boost of HDR rates ([2]; 25 μM CM1tf, AAV-DJ donor with 500 bp homology arms, MOI 0 to 160,000, HPRT1 and SERPINC1, FIG. 1A-B)	HDR boost compared with i53 ([2]; AAV donor at MOI 20,000, doses 6.25 to 200 μM, FIG. 4)	dose dependence of HDR benefit ([2]; FIG. 4)	less AAV needed to achieve the same level of editing as without enhancer ([2]; HEK293 cells, 25 μM CM1tf, AAV donor MOI range)	formation of ionizing radiation induced 53BP1 foci [3]	benefit to HDR as a function of dose [4]	optimal concentration for HDR benefit [4]	rates of HDR [5]
CM1tf: tag-free version of ubiquitin variant CM1, SEQ ID NO: 3; K6R, T7M, T12M, T14E, K33H, A46Q, S65P, L67K, H68M relative to i53	boosts HDR	approximately equivalent improvement in HDR rates	dramatically boosted HDR rates	continued to outperform i53	slightly larger benefit to HDR with increasing dose	approximately four-fold				
i53: ubiquitin variant inhibitor of 53BP1 (Canny et al.), SEQ ID NO: 1					large performance increase going from 100 μM to 200 μM		inhibited the formation ionizing radiation induced 53BP1 foci	decrease in benefit at 200 μM	100 to 150 µM	improve the rates of HDR
